Test results reported in paper PMC6412895, “Synthesis, Characterization, and Biological Activity of a Novel Series of Benzo[4,5]imidazo[2,1-b]thiazole Derivatives as Potential Epidermal Growth Factor Receptor Inhibitors” (Molecules, 2019).

Columns and labels:
HeLa cells = assay: MTT anti-proliferative assay, HeLa; format: cell-based, human; conditions: 24 h incubation, EGFR high-expressed cell line
Procedure: (§1) The inhibitory activities of all target compounds against the cervical cancer cell line HeLa, human liver cancer cell line HepG2, human liver cell line HL7702, and human umbilical vein endothelial cell line HUVEC were determined by the 3-(4,5-dimethylthiazol-2-yl)-2,5-diphenyltetrazolium bromide (MTT) assay. As known, the EGFR level of the HeLa cells was highly expressed, while that of the HepG2 cells was low, and the HL7702 cells and HUVEC cells were human normal cells.
(§2) The human cancer cell lines (HeLa and HepG2) and the human normal ones (HL7702 and HUVEC) were chosen to evaluate the antitumor activity and cell toxicity of target compounds in vitro by the MTT assay. HeLa, HepG2, and HUVEC cells were cultured in a Dulbecco’s modified Eagle’s medium (DMEM) supplemented with 10% fetal bovine serum, and HL7702 cells were cultured in a DMEM supplemented with 10% fetal bovine serum. Cells were grown to 80–90% confluence and subjected to no more than 20 cell passages and were left to acclimatize for 24 h before any treatments. The cells were seeded into 96-well plates (8 * 10^4 cells/mL) and incubated at 37 °C in a humidified atmosphere containing 5% CO2 overnight. After 24 h, the cancer cells were treated with the target compounds at 100, 50, 25, 12.5, 6.25, 3.13, and 1.56 μmol/L; the human normal cells HL7702 were treated with 200 and 100 μmol/L of the target ones; and the HUVEC were treated with 100 and 50 μmol/L of the target compounds. After 24 h of incubation, MTT (5 mg/mL) was subsequently added and incubated for 4 h. Next, the culture medium was cleared, and the crystals were dissolved in DMSO. The optical densities (OD) at 490 nm were measured on a universal microplate reader (Bio-Tek instruments, Inc., EL × 800). Inhibitory effects were expressed as the percentage of IC50 value.

HepG2 cells = assay: MTT anti-proliferative assay, HepG2; format: cell-based, human; conditions: EGFR low-expressed cell line
Procedure: as §1, §2

HL7702 cells = assay: MTT cell toxicity assay, HL7702 normal liver cells; format: cell-based; conditions: human normal liver cell line
Procedure: as §1, §2

HUVEC cells = assay: MTT cell toxicity assay, HUVEC; format: cell-based; conditions: 24 h incubation, human normal cells
Procedure: as §1, §2

EGFR kinase = EGFR kinase (Homo sapiens, UniProt P00533); assay: EGFR kinase assay (Kinase-Glo Plus luminescence); format: biochemical; conditions: 10 µM ATP, 30 °C, 40 minutes
Procedure: The EGFR kinase assays of the target compounds were performed by the intrinsic ATPase activity luminescence assay. All the enzymatic reactions were conducted at 30 °C for 40 minutes. The 50 µL reaction mixture contained 40 mM Tris, pH 7.4, 10 mM MgCl2, 0.1 mg/mL BSA, 1 mM DTT, 10 µM adenosine triphosphate (ATP), 0.2 ug/mL PI3 Kinase, and 100 µM lipid substrate. The compounds were diluted in 10% DMSO and 5 µL of the dilution was added to a 50 µL reaction so that the final concentration of DMSO was 1% in all the reactions. The assay was performed using the Kinase-Glo Plus luminescence kinase assay kit, which measures the kinase activity by quantifying the amount of ATP remaining in solution following a kinase reaction. The luminescent signal from the assay was correlated with the amount of ATP present and was inversely correlated with the amount of kinase activity. The IC50 values were calculated using nonlinear regression with a normalized dose−response fit using the Prism GraphPad software (version 6.0, GraphPad Software, San Diego, CA, USA).

[1] = Homo sapiens, HepG2, 24 h incubation

EGFR kinase, sequence (P00533 669-1210 limits assumed): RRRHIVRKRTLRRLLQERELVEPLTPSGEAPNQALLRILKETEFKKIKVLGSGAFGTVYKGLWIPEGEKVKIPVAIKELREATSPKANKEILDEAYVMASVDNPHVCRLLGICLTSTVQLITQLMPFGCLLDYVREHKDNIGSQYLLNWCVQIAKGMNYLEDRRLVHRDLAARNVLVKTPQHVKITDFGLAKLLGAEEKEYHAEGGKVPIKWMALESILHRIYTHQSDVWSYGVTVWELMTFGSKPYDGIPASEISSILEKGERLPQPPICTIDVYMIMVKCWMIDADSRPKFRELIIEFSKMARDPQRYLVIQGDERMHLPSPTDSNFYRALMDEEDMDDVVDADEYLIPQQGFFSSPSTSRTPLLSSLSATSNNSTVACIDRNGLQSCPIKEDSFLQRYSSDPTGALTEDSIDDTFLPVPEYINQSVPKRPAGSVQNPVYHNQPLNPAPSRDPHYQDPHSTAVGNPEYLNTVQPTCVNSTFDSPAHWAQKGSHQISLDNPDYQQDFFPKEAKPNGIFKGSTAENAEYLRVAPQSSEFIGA

Compound	IC50 (HeLa cells) [µM]	IC50 (HepG2 cells; 24 h incubation) [µM]	IC50 (HeLa cells; Homo sapiens, HeLa) [µM]	IC50 (HepG2 cells; [1]) [µM]	melting point [°C]	IC50 (EGFR kinase) [µM]	IC50 (HL7702 cells; 24 h incubation) [µM]	IC50 (HUVEC cells) [µM]	IC50 (HL7702 cells; L02, 24 h incubation) [µM]	IC50 (HUVEC cells; HUVEC) [µM]
2-(Benzo[4,5]imidazo[2,1-b]thiazol-3-yl)-N-(4-(benzyloxy)phenyl)acetamide [Compound D12]	> 100	> 100					> 200	> 100		
2-(Benzo[4,5]imidazo[2,1-b]thiazol-3-yl)-N-(4-(trifluoromethyl)phenyl)acetamide [Compound D18]	43.7									
O=C(Cc1csc2nc3ccccc3n12)Nc1ccccc1 [Compound D01, 2-(Benzo[4,5]imidazo[2,1-b]thiazol-3-yl)-N-phenylacetamide]			> 100	> 100	123 to 125				> 200	> 100
O=C(Cc1csc2nc3ccccc3n12)Nc1ccc(O)cc1 [Compound D02, 2-(Benzo[4,5]imidazo[2,1-b]thiazol-3-yl)-N-(4-hydroxyphenyl)acetamide]			> 100	> 100	101 to 103				> 200	> 100
O=C(Cc1csc2nc3ccccc3n12)Nc1ccccc1O [Compound D04, 2-(Benzo[4,5]imidazo[2,1-b]thiazol-3-yl)-N-(2-hydroxyphenyl)acetamide]			0.42	> 100	121 to 123	0.055			> 200	> 100
O=C(Cc1csc2nc3ccccc3n12)Nc1cccc2ccccc12 [Compound D08, 2-(Benzo[4,5]imidazo[2,1-b]thiazol-3-yl)-N-(naphthalen-1-yl)acetamide]			2.49	> 100	136 to 138	0.0883			> 200	> 100
O=C(Cc1csc2nc3ccccc3n12)Nc1ccc(Cl)c(C(F)(F)F)c1 [Compound D10, 2-(Benzo[4,5]imidazo[2,1-b]thiazol-3-yl)-N-(4-chloro-3-(trifluoromethyl)phenyl)acetamide]			> 100	> 100	153 to 155				> 200	> 100
O=C(Cc1csc2nc3ccccc3n12)Nc1ccc(Br)c(F)c1 [Compound D11, 2-(Benzo[4,5]imidazo[2,1-b]thiazol-3-yl)-N-(4-bromo-3-fluorophenyl)acetamide]			> 100	> 100	151 to 153				> 200	> 100
Cc1ccccc1NC(=O)Cc1csc2nc3ccccc3n12 [Compound D15, 2-(Benzo[4,5]imidazo[2,1-b]thiazol-3-yl)-N-(2-methylphenyl)acetamide]			> 100	> 100	83 to 85				> 200	> 100
O=C(Cc1csc2nc3ccccc3n12)Nc1cc(F)cc(F)c1 [Compound D16, 2-(Benzo[4,5]imidazo[2,1-b]thiazol-3-yl)-N-(3,5-difluorophenyl)acetamide]			32.1	> 100	101 to 103				> 200	> 100

Now from value to compound, other results behind:

IC50 (HeLa cells) [µM]	IC50 (HepG2 cells; 24 h incubation) [µM]	IC50 (HeLa cells; Homo sapiens, HeLa) [µM]	IC50 (HepG2 cells; [1]) [µM]	melting point [°C]	IC50 (EGFR kinase) [µM]	Compound	IC50 (HL7702 cells; 24 h incubation) [µM]	IC50 (HUVEC cells) [µM]	IC50 (HL7702 cells; L02, 24 h incubation) [µM]	IC50 (HUVEC cells; HUVEC) [µM]
		> 100	> 100	111 to 113		O=C(Cc1csc2nc3ccccc3n12)Nc1cccc(O)c1 [Compound D03, 2-(Benzo[4,5]imidazo[2,1-b]thiazol-3-yl)-N-(3-hydroxyphenyl)acetamide]			> 200	> 100
		> 100	> 100	196 to 198		C=CCOc1ccc(NC(=O)Cc2csc3nc4ccccc4n23)cc1 [Compound D05, N-(4-(Allyloxy)phenyl)-2-(benzo[4,5]imidazo[2,1-b]thiazol-3-yl)acetamide]			> 200	> 100
		> 100	> 100	132 to 134		O=C(Cc1csc2nc3ccccc3n12)Nc1cccc([N+](=O)[O-])c1 [Compound D06, 2-(Benzo[4,5]imidazo[2,1-b]thiazol-3-yl)-N-(3-nitrophenyl)acetamide]			> 200	> 100
		> 100	> 100	99 to 101		O=C(Cc1csc2nc3ccccc3n12)Nc1ccc([N+](=O)[O-])cc1 [Compound D07, 2-(Benzo[4,5]imidazo[2,1-b]thiazol-3-yl)-N-(4-nitrophenyl)acetamide]			> 200	> 100
		14.1	> 100	151 to 153	0.1	O=C(Cc1csc2nc3ccccc3n12)Nc1ccc(Cl)cc1 [Compound D09, 2-(Benzo[4,5]imidazo[2,1-b]thiazol-3-yl)-N-(4-chlorophenyl)acetamide]			> 200	> 100
		> 100	> 100	218 to 220		O=C(Cc1csc2nc3ccccc3n12)Nc1ccc(F)c(Br)c1 [Compound D13, 2-(Benzo[4,5]imidazo[2,1-b]thiazol-3-yl)-N-(3-bromo-4-fluorophenyl)acetamide]			> 200	> 100
		> 100	> 100	107 to 109		O=C(Cc1csc2nc3ccccc3n12)Nc1ccc(Br)cc1 [Compound D14, 2-(Benzo[4,5]imidazo[2,1-b]thiazol-3-yl)-N-(4-bromophenyl)acetamide]			> 200	> 100
		> 100	> 100	206 to 208		O=C(Cc1csc2nc3ccccc3n12)Nc1ccc(Cl)cc1Cl [Compound D17, 2-(Benzo[4,5]imidazo[2,1-b]thiazol-3-yl)-N-(2,4-dichlorophenyl)acetamide]			> 200	> 100
